In test [1] the target is T1, Gram Negative E. coli RelA (Escherichia coli, UniProt P0AG20).
T1 construct: made in house; host or cells: deltaRelA E. coli cells, IPTG induced
As to the kind of experiment: In vitro (p)ppGpp accumulation, RelA synthetic activity. Format: biochemical. The settings on record: figure only. The protocol: (§1) Starters of deltaRelA E. coli cells, expressing one of the following proteins (RelA, RelA638 or Relseq385) in trans, were grown overnight at 37° C. The next day, the starters were diluted 1:50 in 400 ml LBamp and the cells have continued to grow at 37° C. until they reached O.D600=˜0.6. Then, the cells were added with IPTG (1 mg/ml) and the cells were grown at the same conditions for additional 2-3 h. After that the cells were harvested for 10 min at 4000 rpm and the pellet was frozen at −80° C.
(§2) • Lysis of the pellet using “Lysis Buffer” containing Lysozyme (3 mg/ml) and ½ pill of Complete (EDTA-free). • Sonication on ice for 3.5 min. • Centrifuge the cells for 10 min at 10000 rpm. • Mix the supernatant with Ni-NTA bids for 1 h at 4° C. • Load the bids on a column and wash it with “Wash Buffer”. • Elute the protein using “Elution Buffer”.
(§3) The elution fractions were run on 12% Acryl/Bis gel and the fractions containing the most protein were taken to dialysis (two times overnight at 4° C.). After dialysis the concentration of the protein was determined using Bradford Reagent (O.D595).
(§4) In Vitro (p)ppGpp Accumulation:
(§5) 2.5 mM GTP, 20 mM ATP, 200 mM Tris HCl pH7.4, 5 mM DTT, 50 mM MgCl2
(§6) 50 mM KCl, 135 mM (NH4)2SO4, α-^32P GTP (0.1 μl per reaction), DDW
(§7) Once the buffer is added together with 1 μg of protein, 0-10 mM of inhibitor and 30 μg of ribosomes (in a total volume of 20 μl) the following reaction occurs: GTP/GDP+ATP→(p)ppGpp.
(§8) The reactions are incubated at room temperature for a period of 10-90 minutes. Then, the reactions are stopped by the addition of 5 μl of Formic acid. Once the reactions were stopped, they were placed on ice until 5 μl of each reaction were loaded on Cellulose PEI (Merck) and ran for 2 hours in 1.5M KH2PO4. The PEI was read, using image reader-1000 V1.8 and the data was analyzed by TINA 2.0 software.

The target of test [2] is T2, Relseq from Gram Positive Streptococcus equisimils (Streptococcus dysgalactiae subsp. equisimilis, UniProt Q54089).
T2 construct: made in house; host or cells: deltaRelA E. coli cells, IPTG induced
Kind of test: In vitro (p)ppGpp accumulation, Relseq synthetic activity. Format: biochemical. The following applies: figure only. How it is done: as §1, §2, §3, §4, §5, §6, §7, §8

Where [3] appears, read: presented as pmol (p)ppGpp per mg RelA vs. compound concentration, 0-10 mM inhibitor.
[4] abbreviates: separate experiment, presented as % inhibition vs. compound concentration.
Where [5] appears, read: presented as % inhibition vs. compound concentration.

The structures appear in SMILES notation.

T2 sequence (Q54089 1-385): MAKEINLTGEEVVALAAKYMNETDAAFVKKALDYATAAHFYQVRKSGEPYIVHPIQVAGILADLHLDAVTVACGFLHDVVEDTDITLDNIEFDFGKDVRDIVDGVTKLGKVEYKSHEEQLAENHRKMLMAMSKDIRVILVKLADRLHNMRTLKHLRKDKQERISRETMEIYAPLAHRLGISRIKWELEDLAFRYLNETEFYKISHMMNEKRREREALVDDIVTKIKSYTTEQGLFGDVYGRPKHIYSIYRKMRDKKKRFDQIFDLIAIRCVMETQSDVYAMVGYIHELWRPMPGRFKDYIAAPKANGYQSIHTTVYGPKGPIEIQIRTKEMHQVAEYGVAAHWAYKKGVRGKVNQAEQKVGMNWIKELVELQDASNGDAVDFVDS
T1 sequence (P0AG20 whole entry): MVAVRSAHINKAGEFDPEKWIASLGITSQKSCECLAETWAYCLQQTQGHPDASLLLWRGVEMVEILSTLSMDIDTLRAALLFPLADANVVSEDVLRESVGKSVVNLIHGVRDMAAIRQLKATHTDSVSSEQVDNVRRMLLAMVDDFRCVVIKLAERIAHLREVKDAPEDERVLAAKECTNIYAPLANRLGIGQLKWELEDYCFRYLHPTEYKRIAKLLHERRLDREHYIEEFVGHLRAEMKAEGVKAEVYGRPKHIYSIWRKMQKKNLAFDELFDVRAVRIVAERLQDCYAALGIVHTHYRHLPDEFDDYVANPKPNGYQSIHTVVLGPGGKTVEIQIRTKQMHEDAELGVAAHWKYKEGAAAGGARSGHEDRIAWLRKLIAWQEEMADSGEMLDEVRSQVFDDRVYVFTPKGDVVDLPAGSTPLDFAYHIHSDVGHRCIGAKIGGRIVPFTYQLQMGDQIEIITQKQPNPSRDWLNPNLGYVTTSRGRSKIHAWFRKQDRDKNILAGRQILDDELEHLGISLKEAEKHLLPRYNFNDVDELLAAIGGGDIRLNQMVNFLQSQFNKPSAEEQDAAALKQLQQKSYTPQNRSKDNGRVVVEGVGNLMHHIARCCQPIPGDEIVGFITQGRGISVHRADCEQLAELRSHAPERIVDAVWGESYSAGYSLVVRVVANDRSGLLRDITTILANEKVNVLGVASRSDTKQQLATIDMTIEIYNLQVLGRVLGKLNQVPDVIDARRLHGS

Turning to `Nc1nc2c(ncn2[C@@H]2O[C@H](COP(=O)(O)CP(=O)(O)O)C(O)C2O)c(=O)[nH]1` (stereo partly drawn) [Compound A1], the “inhibitory effect on RelA synthetic activity in vitro” value in test [1] (setting [3]) and in test [1] (setting [4]) was “inhibitory effect” throughout. For the same compound, in test [2] (setting [5]), the “inhibitory effect on Relseq synthetic activity in vitro” value is given as “inhibitory effect”.

With `Nc1nc2c(ncn2[C@@H]2O[C@H](COP(=O)(O)CP(=O)(O)O)C(OP(=O)(O)CP(=O)(O)O)C2O)c(=O)[nH]1` (stereo partly drawn) [Compound D1c], in test [1] (setting [4]), the “inhibitory effect on RelA synthetic activity in vitro” value is reported as “inhibitory effect”. Further, the “inhibitory effect on Relseq synthetic activity in vitro” value in test [2] (setting [5]) is “inhibitory effect”.

For the compound `Nc1nc2c(ncn2[C@@H]2O[C@H](COP(=O)(O)CP(=O)(O)O)C(O)C2OP(=O)(O)CP(=O)(O)O)c(=O)[nH]1` (stereo partly drawn) [Compound D2b], the “inhibitory effect on RelA synthetic activity in vitro” value in test [1] (setting [4]) was “inhibitory effect”. The “inhibitory effect on Relseq synthetic activity in vitro” value in test [2] (setting [5]) is “inhibitory effect”.

In the case of `CC(C)C(=O)Nc1nc2c(ncn2C2OC(COP(=O)(O)CP(=O)(O)O)C(O)C2OP(=O)(O)CP(=O)(O)O)c(=O)[nH]1` (stereo not drawn) [Compound D2c], the “inhibitory effect on RelA synthetic activity in vitro” value in test [1] (setting [4]) is “inhibitory effect”.

For the compound `Nc1nc2c(ncn2[C@H]2CC(OP(=O)(O)CP(=O)(O)O)[C@@H](COP(=O)(O)CP(=O)(O)O)O2)c(=O)[nH]1` (stereo partly drawn) [Compound D3, 5′,3′-O-di-[methylene-(bisphosphonate)]-2′-deoxyguanosine], the “inhibitory effect on RelA synthetic activity in vitro” value in test [1] (setting [3]) and in test [1] (setting [4]) was “inhibitory effect” in each case. In addition, the “inhibitory effect on Relseq synthetic activity in vitro” value in test [2] (setting [5]) and in test [2] (presented as pmol (p)ppGpp per mg Relseq vs. compound concentration) was “inhibitory effect” each time.

On to `CC(C)C(=O)Nc1nc2c(ncn2C2OC(COP(=O)(O)CP(=O)(O)O)C(O[Si](C)(C)C(C)(C)C)C2OP(=O)(O)CP(=O)(O)O)c(=O)[nH]1` (stereo not drawn) [Compound D6], for which the “inhibitory effect on RelA synthetic activity in vitro” value in test [1] (setting [3]) and in test [1] (setting [4]) was “inhibitory effect” each time.

In the case of `CC(C)C(=O)Nc1nc2c(ncn2C2OC(COP(=O)(O)CP(=O)(O)O)C(OP(=O)(O)CP(=O)(O)O)C2O[Si](C)(C)C(C)(C)C)c(=O)[nH]1` (stereo not drawn) [Compound D7], the “inhibitory effect on RelA synthetic activity in vitro” value in test [1] (setting [3]) and in test [1] (setting [4]) was “inhibitory effect” throughout.

For `CC(C)C(=O)Nc1nc2c(ncn2C2OC(COP(=O)(O)CP(=O)(O)O)C(OP(=O)(O)CP(=O)(O)O)C2O)c(=O)[nH]1` (stereo not drawn) [Compound D8], the “inhibitory effect on RelA synthetic activity in vitro” value in test [1] (setting [3]) and in test [1] (setting [4]) was “inhibitory effect” in each case.

Regarding `CC1(C)OC2C(COP(=O)(O)CP(=O)(O)O)OC(n3cnc4c(=O)[nH]c(N)nc43)C2O1` (stereo not drawn) [Compound E3b], the “inhibitory effect on RelA synthetic activity in vitro” value in test [1] (setting [3]) and in test [1] (setting [4]) was “inhibitory effect” each time. Besides, in test [2] (setting [5]), the “inhibitory effect on Relseq synthetic activity in vitro” value is reported as “inhibitory effect”.

The values above are taken from US20110086813A1, “COMPOUNDS FOR TREATING BACTERIAL INFECTIONS” (priority 2008, published 2011).
